The source made the active and inactive calls. The rule behind the calls is not given here.
tested on: in vivo angiogenesis, blood vessel count; assay: reduction of blood vessel formation in vivo – HTS, in vivo study (AID 732); details: stronger effect = lower value;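 tested at 30 µM in the well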;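 note: zebrafish embryos dosed at one day post fertilization; 0% = reference inhibitor and 100% = plate mean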

Question: For CCCN1CCC[C@H](c2cccc(O)c2)C1, which vessel count % control is on record?
Answer: 77.4% (inactive)

Question: Oc1ccc2c3c1O[C@H]1c4oc5ccccc5c4C[C@@]4(O)C(C2)N(CC2CC2)CCC314 (stereo not given in full) was tested. Which vessel count % control did it give?
Answer: 93.1% (inactive)

Question: For CC1C(=O)N(C)C(=O)c2nc[nH]c21 (stereo not given), which vessel count % control is on record?
Answer: 98.5% (inactive)

Question: How did the vessel count % control turn out when C[N+](C)(C)CC#CCOC(=O)Nc1cccc(Cl)c1 was run?
Answer: 81.2% (inactive)

Question: Which vessel count % control does the source give for O=c1cc(N2CCOCC2)oc2c(-c3ccccc3)cccc12 here?
Answer: 120% (inactive)

Question: How did the vessel count % control turn out when CCn1cnc2c(Nc3cccc(Cl)c3)nc(N[C@@H]3CCCC[C@@H]3N)nc21 was run?
Answer: 88.4% (inactive)

Question: With NC(N)=Nc1ccc2[nH]c3c(c2c1)C[C@@]1(O)[C@H]2Cc4ccc(O)c5c4[C@@]1(CCN2CC1CC1)[C@H]3O5 as the molecule, how does the vessel count % control read?
Answer: 101% (inactive)

Question: How did the vessel count % control turn out when CC(C)(Sc1ccc(CCN(CCCCC2CCCCC2)C(=O)NC2CCCCC2)cc1)C(=O)O was run?
Answer: 103% (inactive)

Question: For c1ccc(-c2ccccn2)nc1, which vessel count % control is on record?
Answer: 109% (inactive)

Question: With Cc1nc2ccccn2c(=O)c1CCN1CCC(C(=O)c2ccc(F)cc2)CC1 as the molecule, how does the vessel count % control read?
Answer: 94.9% (inactive)

Question: Which vessel count % control does the source give for N[C@H]1CONC1=O here?
Answer: 93% (inactive)

Question: Which vessel count % control does the source give for c1ccc(CN2CCC3(CCCc4ccccc43)CC2)cc1 here?
Answer: 128% (inactive)

Question: For CN1C2CCC1CC(OC(c1ccccc1)c1ccccc1N)C2 (stereo not given), which vessel count % control is on record?
Answer: 91.2% (inactive)

Question: Which vessel count % control does the source give for CC12C(=O)OC(=O)C1(C)C1CCC2O1 (stereo not given) here?
Answer: 0% (inactive)

Question: With O=C1C(c2c(O)[nH]c3c(Cl)cc(Cl)cc23)=Nc2ccccc21 as the molecule, how does the vessel count % control read?
Answer: 60.2% (inactive)

Question: How did the vessel count % control turn out when Nc1ncnc2c1nc(Sc1ccc(Cl)cc1)n2C1OC2COP(=O)(O)O[C@@H]2[C@@H]1O (stereo not given in full) was run?
Answer: 88.9% (inactive)

Question: Which vessel count % control does the source give for NO here?
Answer: 93.7% (inactive)

Question: Which vessel count % control does the source give for CNc1ncnc2c1ncn2[C@@H]1O[C@H](CO)[C@H](O)C1O (stereo not given in full) here?
Answer: 95.4% (inactive)

Question: Which vessel count % control does the source give for O=C(C1CCCCC1)N1CC(=O)N2CCc3ccccc3C2C1 (stereo not given) here?
Answer: 101% (inactive)

Question: Which vessel count % control does the source give for Nc1nc(Nc2ccccc2)nc2c1ncn2[C@@H]1O[C@H](CO)[C@H](O)C1O (stereo not given in full) here?
Answer: 94.3% (inactive)

Question: With OC[C@H]1O[C@@H](n2cnc3c(NC4CCCC4)ncnc32)C(O)[C@H]1O (stereo not given in full) as the molecule, how does the vessel count % control read?
Answer: 94.3% (inactive)

Question: Which vessel count % control does the source give for CCCN(CCC)[C@@H]1CCc2c(F)ccc(O)c2C1 here?
Answer: 78.7% (inactive)

Question: Which vessel count % control does the source give for O=C1CCc2cc(OCCCCc3nnnn3C3CCCCC3)ccc2N1 here?
Answer: 124% (inactive)

Question: Which vessel count % control does the source give for CC(C)NC[C@@H](O)c1ccc(O)c(O)c1 here?
Answer: 108% (inactive)

Question: Which vessel count % control does the source give for CN1CCc2ccccc2Cc2[nH]c3ccccc3c2CC1 here?
Answer: 66.8% (inactive)

Question: How did the vessel count % control turn out when CN1C[C@H](C(=O)N[C@]2(C)O[C@@]3(O)[C@@H]4CCCN4C(=O)[C@H](Cc4ccccc4)N3C2=O)C[C@@H]2c3cccc4[nH]cc(c34)C[C@H]21 was run?
Answer: 98.7% (inactive)

Question: Which vessel count % control does the source give for N[C@@H](Cc1ccc(O)c(O)c1)C(=O)O here?
Answer: 118% (inactive)

Question: c1ccc2sc(C3(N4CCCCC4)CCCCC3)cc2c1 was tested. Which vessel count % control did it give?
Answer: 93.4% (inactive)

Question: Which vessel count % control does the source give for CN[C@H](CC(C)C)C(=O)N[C@H]1C(=O)N[C@@H](CC(N)=O)C(=O)N[C@H]2C(=O)N[C@H]3C(=O)N[C@H](C(=O)N[C@H](C(=O)O)c4cc(O)cc(O)c4-c4cc3ccc4O)[C@H](O)c3ccc(c(Cl)c3)Oc3cc2cc(c3O[C@@H]2O[C@H](CO)[C@@H](O)[C@H](O)[C@H]2O[C@H]2C[C@](C)(N)[C@H](O)[C@H](C)O2)Oc2ccc(cc2Cl)[C@H]1O here?
Answer: 103% (inactive)

Question: How did the vessel count % control turn out when COC(=O)N1CCN(C(=O)Cc2ccc(Cl)c(Cl)c2)C(CN2CCCC2)C1 (stereo not given) was run?
Answer: 116% (inactive)

Question: With CN(C)C(=O)/N=N/C(=O)N(C)C as the molecule, how does the vessel count % control read?
Answer: 110% (inactive)

Question: COc1ccc2[nH]cc(CCNC(C)=O)c2c1 was tested. Which vessel count % control did it give?
Answer: 76.5% (inactive)

Question: Which vessel count % control does the source give for CSc1nc(N)c2ncn([C@@H]3O[C@H](COP(=O)(O)OP(=O)(O)O)[C@H](O)C3O)c2n1 (stereo not given in full) here?
Answer: 83.5% (inactive)

Question: Which vessel count % control does the source give for COC(=O)C1=C(C)NC(C)=C(C(=O)OC)C1c1ccccc1[N+](=O)[O-] here?
Answer: 112% (inactive)

Question: CN1CCc2cccc3c2C1Cc1ccc(O)c(O)c1-3 (stereo not given) was tested. Which vessel count % control did it give?
Answer: 0% (inactive)

Question: CCN(CC)CCOC(=O)c1cc(Cl)c(N)cc1OC was tested. Which vessel count % control did it give?
Answer: 114% (inactive)

Question: For OC1(c2ccc(Cl)cc2)CCN(Cc2c[nH]c3ccccc23)CC1, which vessel count % control is on record?
Answer: 96.6% (inactive)

Question: Which vessel count % control does the source give for O=Nc1c(-c2c(O)[nH]c3ccccc23)[nH]c2ccc(Br)cc12 here?
Answer: 67.5% (inactive)

Question: Which vessel count % control does the source give for CN[C@@H]1C[C@@H](c2ccc(Cl)c(Cl)c2)c2ccccc21 here?
Answer: 0% (inactive)

Question: Which vessel count % control does the source give for CN1CCc2cc(NC(=O)Nc3cccnc3)ccc21 here?
Answer: 86.6% (inactive)

Question: Cc1oncc1C(=O)Nc1ccc(C(F)(F)F)cc1 was tested. Which vessel count % control did it give?
Answer: 81.6% (inactive)

Question: Cc1c(C)c2c(c(C)c1O)CCC(C)(CN1CCN(c3cc(N4CCCC4)nc(N4CCCC4)n3)CC1)O2 (stereo not given) was tested. Which vessel count % control did it give?
Answer: 99.2% (inactive)

Question: With CC(=O)O[C@]1(C(C)=O)CC[C@H]2[C@@H]3C=C(Cl)C4=CC(=O)[C@@H]5C[C@@H]5[C@]4(C)[C@H]3CC[C@@]21C as the molecule, how does the vessel count % control read?
Answer: 71.2% (inactive)

Question: For N=c1ccn2c(n1)OC1[C@@H](O)[C@@H](CO)O[C@H]12 (stereo not given in full), which vessel count % control is on record?
Answer: 78.4% (inactive)

Question: COc1cc(NS(C)(=O)=O)ccc1Nc1c2ccccc2nc2ccccc12 was tested. Which vessel count % control did it give?
Answer: 106% (inactive)
